Assay results from patent publication US11414431B2, “Substituted pyrazolo[1,5-a]pyrimidines as TYK2 inhibitors” (Nimbus Lakshmi, Inc., priority 2018, dated 2022).

Molecular target: human TYK2 (JH2domain-pseudokinase) (Homo sapiens (Human), UniProt P29597)
Assay: TYK2 JH2 Domain Binding Assay (KINOMEscan)
Details: 11-point 3-fold dilution, top concentration 30,000 nM, duplicate; read-out: hTYK2_JH2_Binding (Kd; nM)
Procedure: Binding constants for compounds of the present invention against the JH2 domain were determined by the following protocol for a KINOMEscan® assay (DiscoveRx). A fusion protein of a partial length construct of human TYK2 (JH2domain-pseudokinase) (amino acids G556 to D888 based on reference sequence NP_003322.3) and the DNA binding domain of NFkB was expressed in transiently transfected HEK293 cells. From these HEK 293 cells, extracts were prepared in M-PER extraction buffer (Pierce) in the presence of Protease Inhibitor Cocktail Complete (Roche) and Phosphatase Inhibitor Cocktail Set II (Merck) per manufacturers' instructions. The TYK2(JH2domain-pseudokinase) fusion protein was labeled with a chimeric double-stranded DNA tag containing the NFkB binding site (5′-[…]-3′) fused to an amplicon for qPCR readout, which was added directly to the expression extract (the final concentration of DNA-tag in the binding reaction is 0.1 nM).
The liganded beads were blocked with excess biotin and washed with blocking buffer (SeaBlock (Pierce), 1% BSA, 0.05% Tween 20, 1 mM DTT) to remove unbound ligand and to reduce nonspecific binding.
Extracts were loaded with DNA-tag and diluted into the binding reaction in a two step process. First extracts were diluted 1:100 in 1× binding buffer (PBS/0.05% Tween 20/10 mM DTT/0.1% BSA/2 μg/ml sonicated salmon sperm DNA) containing 10 nM DNA-tag. This dilution was allowed to equilibrate at room temperature for 15 minutes and then subsequently diluted 1:100 in 1× binding buffer. […] Kds were determined using an 11-point 3-fold compound dilution series with three DMSO control points. […] The compounds were then diluted directly into the assays such that the final concentration of DMSO was 0.9%. All reactions performed in polypropylene 384-well plates. Each was a final volume of 0.02 mL. Assays were incubated with shaking for 1 hour at room temperature. Then the beads were pelleted and washed with wash buffer (lx PBS, 0.05% Tween 20) to remove displaced kinase and test compound. […] The qPCR protocol consisted of a 10 minute hot start at 95° C., followed by 35 cycles of 95° C. for 15 seconds, 60° C. for 1 minute.
Kds were determined using an 11-point 3-fold compound dilution series with three DMSO control points. […] The compounds were then diluted directly into the assays such that the final concentration of DMSO was 0.9%. The Kds were determined using a compound top concentration of 30,000 nM. Kd measurements were performed in duplicate.
Binding constants (Kds) were calculated with a standard dose-response curve using the Hill equation: […]
The Hill Slope was set to −1.

Sequence of human TYK2 (JH2domain-pseudokinase) (P29597 556-888): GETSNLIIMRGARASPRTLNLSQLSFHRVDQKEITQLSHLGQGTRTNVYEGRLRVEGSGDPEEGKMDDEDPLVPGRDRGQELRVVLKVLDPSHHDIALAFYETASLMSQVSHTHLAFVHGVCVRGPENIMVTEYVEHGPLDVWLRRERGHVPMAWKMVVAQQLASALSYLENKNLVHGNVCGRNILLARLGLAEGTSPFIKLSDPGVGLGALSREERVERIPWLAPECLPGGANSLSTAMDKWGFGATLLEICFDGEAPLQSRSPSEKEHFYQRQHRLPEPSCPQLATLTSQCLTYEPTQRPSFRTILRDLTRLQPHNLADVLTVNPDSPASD

Row | Kd | SMILES
1 | < 0.2 nM | CNc1cc(Nc2cccn([C@@H]3CC[C@@H]3O)c2=O)nc2c(C(=O)N[C@@H]3CCC[C@@H](OC)C3)cnn12 [Compound I-98, 5-((1-((1R,2S)-2-Hydroxycyclobutyl)-2-oxo-1,2-dihydropyridin-3-yl)amino)-N-((trans-1,3)-3-methoxycyclohexyl)-7-(methylamino)pyrazolo[1,5-a]pyrimidine-3-carboxamide]
2 | < 0.2 nM | CNc1cc(Nc2cccn(C3COC3)c2=O)nc2c(C(=O)N[C@H]3CC[C@H]3F)cnn12 [Compound I-161]
3 | < 0.2 nM | CNc1cc(Nc2cccn(C3CC(F)(F)C3)c2=O)nc2c(C(=O)N[C@@H]3CCC[C@@]3(C)O)cnn12 [Compound I-91, 5-((1-(3,3-Difluorocyclobutyl)-2-oxo-1,2-dihydropyridin-3-yl)amino)-N-((1R,2R)-2-hydroxy-2-methylcyclopentyl)-7-(methylamino)pyrazolo[1,5-a]pyrimidine-3-carboxamide]
4 | 1 to 10 nM | CNc1cc(Nc2cccn([C@H]3CC[C@@H]3O)c2=O)nc2c(C(=O)N[C@@H]3CCC[C@@H](OC)C3)cnn12 [Compound I-96, 5-((1-((1S,2S)-2-Hydroxycyclobutyl)-2-oxo-1,2-dihydropyridin-3-yl)amino)-N-((1R,3R)-3-methoxycyclohexyl)-7-(methylamino)pyrazolo[1,5-a]pyrimidine-3-carboxamide]
5 | 1 to 10 nM | CNc1cc(Nc2cccn([C@H]3CC[C@H]3O)c2=O)nc2c(C(=O)N[C@@H]3CCC[C@@H](OC)C3)cnn12 [Compound I-104, 5-((1-((1S,2R)-2-Hydroxycyclobutyl)-2-oxo-1,2-dihydropyridin-3-yl)amino)-N-((1R,3R)-3-methoxycyclohexyl)-7-(methylamino)pyrazolo[1,5-a]pyrimidine-3-carboxamide]
6 | 0.2 to 1 nM | CNc1cc(Nc2cccn(C(C)C)c2=O)nc2c(C(=O)N[C@H]3C[C@@H]3OC)cnn12 [Compound I-30, 5-((1-Isopropyl-2-oxo-1,2-dihydropyridin-3-yl)amino)-N-((1S,2S)-2-methoxycyclopropyl)-7-(methylamino)pyrazolo[1,5-a]pyrimidine-3-carboxamide]
7 | 0.2 to 1 nM | CNc1cc(Nc2cccn([C@H]3C[C@@H]3F)c2=O)nc2c(C(=O)N[C@@H]3CC[C@@H]3O)cnn12 [Compound I-13, 5-((1-((1S,2S)-2-Fluorocyclopropyl)-2-oxo-1,2-dihydropyridin-3-yl)amino)-N-((1R,2S)-2-hydroxycyclobutyl)-7-(methylamino)pyrazolo[1,5-a]pyrimidine-3-carboxamide]
8 | > 10 nM | CNc1cc(-c2cn(C3CN(C)C3)c3ncccc23)nc2c(C(=O)NC3COC[C@H]3O)cnn12 (stereo partly drawn) [Compound I-714]
9 | < 0.2 nM | CNc1cc(Nc2cccn([C@H]3C[C@H](F)C3)c2=O)nc2c(C(=O)N[C@@H]3C[C@H]3OC)cnn12 [Compound I-137]
10 | < 0.2 nM | CNc1cc(-c2cn([C@H]3COC[C@@H]3O)c3ncccc23)nc2c(C(=O)NC3CC3)cnn12 [Compound I-496]
11 | < 0.2 nM | O=C(N[C@@H]1C[C@@H]1F)c1cnn2c3c(c(Nc4cccn(C5CCOCC5)c4=O)nc12)OCCN3 [Compound I-751, N-((1R,2S)-2-Fluorocyclopropyl)-5-((2-oxo-1-(tetrahydro-2H-pyran-4-yl)-1,2-dihydropyridin-3-yl)amino)-2,3-dihydro-1H-pyrazolo[5′,1′:2,3]pyrimido[5,4-b][1,4]oxazine-7-carboxamide]
12 | > 10 nM | CNc1cc(Nc2cccn([C@@H]3CC[C@@H]3O)c2=O)nc2c(C(=O)N[C@H]3CC[C@H](OC)C3)cnn12 [Compound I-82, 5-((1-((1R,2S)-2-Hydroxycyclobutyl)-2-oxo-1,2-dihydropyridin-3-yl)amino)-N-((1S,3S)-3-methoxycyclopentyl)-7-(methylamino)pyrazolo[1,5-a]pyrimidine-3-carboxamide]
13 | 1 to 10 nM | CNc1cc(Nc2cccn([C@H]3CC[C@H]3O)c2=O)nc2c(C(=O)NC3CCC[C@@H](OC)C3)cnn12 (stereo partly drawn) [Compound I-103, 5-((1-((1S,2R)-2-Hydroxycyclobutyl)-2-oxo-1,2-dihydropyridin-3-yl)amino)-N-((trans-1,3)-3-methoxycyclohexyl)-7-(methylamino)pyrazolo[1,5-a]pyrimidine-3-carboxamide]
14 | 0.2 to 1 nM | CNc1cc(Nc2cccn(C(C)C)c2=O)nc2c(C(=O)N[C@@H]3C[C@H]3OC)cnn12 [Compound I-29, 5-((1-Isopropyl-2-oxo-1,2-dihydropyridin-3-yl)amino)-N-((1R,2R)-2-methoxycyclopropyl)-7-(methylamino)pyrazolo[1,5-a]pyrimidine-3-carboxamide]
15 | < 0.2 nM | CNc1ccc(-c2cc(NC)n3ncc(C(=O)NC4CCC4(F)F)c3n2)n2ccnc12 (stereo not drawn) [Compound I-491]
16 | 0.2 to 1 nM | CNc1cc(Nc2cccn([C@H]3C[C@@H]3F)c2=O)nc2c(C(=O)N[C@@H]3CC[C@H](O)C3)cnn12 [Compound I-44, 5-((1-((1S,2S)-2-Fluorocyclopropyl)-2-oxo-1,2-dihydropyridin-3-yl)amino)-N-((1R,3S)-3-hydroxycyclopentyl)-7-(methylamino)pyrazolo[1,5-a]pyrimidine-3-carboxamide]
17 | < 0.2 nM | CNc1cc(-c2cnc3n(CC(=O)N4CC5(COC5)C4)cccc2-3)nc2c(C(=O)NC3CC[C@@H]3OC)cnn12 (mixture of isomers) [Compound I-970]
18 | 1 to 10 nM | CNc1cc(Nc2cccn([C@H]3CC[C@H]3O)c2=O)nc2c(C(=O)N[C@@H]3CC[C@@H](OC)C3)cnn12 [Compound I-85, 5-((1-((1S,2R)-2-Hydroxycyclobutyl)-2-oxo-1,2-dihydropyridin-3-yl)amino)-N-((1R,3R)-3-methoxycyclopentyl)-7-(methylamino)pyrazolo[1,5-a]pyrimidine-3-carboxamide]
19 | > 10 nM | CO[C@@H]1CC[C@H]1NC(=O)c1cnn2c3c(c(Nc4cccn([C@H]5[C@@H]6COC[C@@H]65)c4=O)nc12)OCCN3 [Compound I-763]
20 | 0.2 to 1 nM | CNc1cc(-c2cn([C@H]3CCCOC3)c3ncccc23)nc2c(C(=O)N[C@H]3CC[C@H]3O)cnn12 [Compound I-15, N-((1S,2R)-2-Hydroxycyclobutyl)-7-(methylamino)-5-(1-((S)-tetrahydro-2H-pyran-3-yl)-1H-pyrrolo[2,3-b]pyridin-3-yl)pyrazolo[1,5-a]pyrimidine-3-carboxamide]
21 | 1 to 10 nM | CNc1cc(Nc2cccn([C@H]3CC[C@@H]3O)c2=O)nc2c(C(=O)N[C@H]3CCC[C@H](OC)C3)cnn12 [Compound I-97, 5-((1-((1S,2S)-2-Hydroxycyclobutyl)-2-oxo-1,2-dihydropyridin-3-yl)amino)-N-((1S,3S)-3-methoxycyclohexyl)-7-(methylamino)pyrazolo[1,5-a]pyrimidine-3-carboxamide]
22 | 1 to 10 nM | CNc1cc(-c2cn([C@H]3CCCOC3)c3ncccc23)nc2c(C(=O)N[C@@H]3COC[C@@H]3O)cnn12 [Compound I-61, N-((3R,4R)-4-Hydroxytetrahydrofuran-3-yl)-7-(methylamino)-5-(1-((S)-tetrahydro-2H-pyran-3-yl)-1H-pyrrolo[2,3-b]pyridin-3-yl)pyrazolo[1,5-a]pyrimidine-3-carboxamide]
23 | < 0.2 nM | CNc1cc(-c2cn([C@H]3CCCOC3)c3ncccc23)nc2c(C(=O)N[C@H]3COC[C@H]3O)cnn12 [Compound I-60, N-((3S,4S)-4-Hydroxytetrahydrofuran-3-yl)-7-(methylamino)-5-(1-((S)-tetrahydro-2H-pyran-3-yl)-1H-pyrrolo[2,3-b]pyridin-3-yl)pyrazolo[1,5-a]pyrimidine-3-carboxamide]
24 | > 10 nM | CNc1ccc(-c2cc(NC)n3ncc(C(=O)N[C@H]4CC[C@@H]4OC)c3n2)n2ccnc12 [Compound I-489]
25 | 1 to 10 nM | CNc1cc(Nc2cccn([C@H]3CC[C@H]3O)c2=O)nc2c(C(=O)N[C@H]3CC[C@H](OC)C3)cnn12 [Compound I-86, 5-((1-((1S,2R)-2-Hydroxycyclobutyl)-2-oxo-1,2-dihydropyridin-3-yl)amino)-N-((1S,3S)-3-methoxycyclopentyl)-7-(methylamino)pyrazolo[1,5-a]pyrimidine-3-carboxamide]
26 | < 0.2 nM | O=C(NC1CC1)c1cnn2c3c(c(Nc4cccn(C5CCOCC5)c4=O)nc12)OCCN3 [Compound I-748]
27 | > 10 nM | CNc1cc(Nc2cccn(C3CC(F)(F)C3)c2=O)nc2c(C(=O)N[C@@H]3CCC[C@@](C)(O)C3)cnn12 [Compound I-92, 5-((1-(3,3-Difluorocyclobutyl)-2-oxo-1,2-dihydropyridin-3-yl)amino)-N-((1R,3R)-3-hydroxy-3-methylcyclohexyl)-7-(methylamino)pyrazolo[1,5-a]pyrimidine-3-carboxamide]
